{
  "source": "patent US8871756B2",
  "about": "(Hoffmann-La Roche Inc., priority 2011, dated 2014)",
  "note": "Structures can show the parent of a compound that is named as a salt.",
  "data": [
    {"test_system": "RSV Long strain", "experiment": "Viral cytopathic effect (CPE) assay, anti-RSV activity", "assay_type": "cell-based, Respiratory Syncytial Virus", "conditions": "human respiratory syncytial virus, 144 h, RSV Long strain (ATCC); cell viability after 6 days, Cell Counting kit-8", "method_in_brief": "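Cells (6×10^3/well, DMEM with 10% FBS) were infected next day with RSV Long strain, at a dose giving approximately 80–90% CPE, alongside serial half-log compound dilutions. Viability was read after 6 days by CCK-8 absorbance at 450 nm (reference 630 nm), and EC50 was derived from it.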", "units": {"EC50": "µM"}, "values": [
      {"compound": "CS(=O)(=O)c1ccc2c(c1)CCCN(c1cc(NCCN)c3ccccc3n1)C2", "note": "[Example 120-1, N-{2-[7-(Methylsulfonyl)-1,3,4,5-tetrahydro-2H-2-benzazepin-2-yl]quinolin-4-yl}ethane-1,2-diamine]", "EC50": 2.19},
      {"compound": "NCC1(CNc2cc(N3CCS(=O)(=O)c4ccccc4C3)nc3ccc(Cl)cc23)COC1", "note": "[Example 3-51, N-{[3-(Aminomethyl)oxetan-3-yl]methyl}-6-chloro-2-(1,1-dioxido-2,3-dihydro-1,4-benzothiazepin-4(5H)-yl)quinolin-4-amine]", "EC50": 0.004},
      {"compound": "NCCCNc1cc(N2CCS(=O)(=O)c3ccccc3C2)nc2ccc(C(F)(F)F)cc12", "note": "[Example 17-2, N-[2-(1,1-Dioxido-2,3-dihydro-1,4-benzothiazepin-4(5H)-yl)-6-(trifluoromethyl)quinolin-4-yl]propane-1,3-diamine]", "EC50": 0.616},
      {"compound": "NC1(CNc2nc(N3CCS(=O)(=O)c4ccccc4C3)nc3ccc(Cl)cc23)COC1", "note": "[Example 57-6, N-[(3-Aminooxetan-3-yl)methyl]-6-chloro-2-(1,1-dioxido-2,3-dihydro-1,4-benzothiazepin-4(5H)-yl)quinazolin-4-amine]", "EC50": 0.037},
      {"compound": "Cc1ccc2nc(N3CCC(F)(F)c4ccccc4C3)cc(N3CCCNCC3)c2c1", "note": "[Example 111-2, 2-[4-(1,4-Diazepan-1-yl)-6-methylquinolin-2-yl]-5,5-difluoro-2,3,4,5-tetrahydro-1H-2-benzazepine]", "EC50": 1.34},
      {"compound": "CCNc1cc(N2CCS(=O)(=O)c3ccccc3C2)nc2ccc(Cl)cc12", "note": "[Example 9-30, 6-Chloro-2-(1,1-dioxido-2,3-dihydro-1,4-benzothiazepin-4(5H)-yl)-N-ethylquinolin-4-amine]", "EC50": 8.59},
      {"compound": "Cc1ccc2nc(N3CCS(=O)(=O)c4ccccc4C3)cc(NCCCCCCN)c2c1", "note": "[Example 3-56, N-[2-(1,1-Dioxido-2,3-dihydro-1,4-benzothiazepin-4(5H)-yl)-6-methylquinolin-4-yl]hexane-1,6-diamine]", "EC50": 0.716},
      {"compound": "NC1=NCC(CNc2cc(N3CCCc4ccccc4C3)nc3ccccc23)O1", "note": "(centres unmarked) [Example 126-1, N-[(2-Amino-4,5-dihydro-1,3-oxazol-5-yl)methyl]-2-(1,3,4,5-tetrahydro-2H-2-benzazepin-2-yl)quinolin-4-amine trifluoroacetate]", "EC50": 0.79},
      {"compound": "Cc1ccc2nc(N3CCC(F)(F)c4ccccc4C3)cc(NCC3(CN)COC3)c2c1", "note": "[Example 110-15, N-{[3-(Aminomethyl)oxetan-3-yl]methyl}-2-(5,5-difluoro-1,3,4,5-tetrahydro-2H-2-benzazepin-2-yl)-6-methylquinolin-4-amine]", "EC50": 0.004},
      {"compound": "CCC(N)C(=O)Nc1cc(N2CCS(=O)(=O)c3ccccc3C2)nc2ccc(C)cc12", "note": "(centres unmarked) [Example 40-4, 2-Amino-N-[2-(1,1-dioxido-2,3-dihydro-1,4-benzothiazepin-4(5H)-yl)-6-methylquinolin-4-yl]butanamide]", "EC50": 2.65},
      {"compound": "Cc1ccc2nc(N3CCS(=O)(=O)c4ccccc4C3)nc(NCC(F)CN)c2c1", "note": "(centres unmarked) [Example 56-5, N-[2-(1,1-Dioxido-2,3-dihydro-1,4-benzothiazepin-4(5H)-yl)-6-methylquinazolin-4-yl]-2-fluoropropane-1,3-diamine]", "EC50": 0.022},
      {"compound": "Cc1ccc2nc(N3CCS(=O)(=O)c4cc(Cl)ccc4C3)cc(NCC(O)CO)c2c1", "note": "(centres unmarked) [Example 32-3, 3-{[2-(8-Chloro-1,1-dioxido-2,3-dihydro-1,4-benzothiazepin-4(5H)-yl)-6-methylquinolin-4-yl]amino}propane-1,2-diol]", "EC50": 1.99},
      {"compound": "OCc1cc(N2CCCc3ccccc3C2)nc2ccccc12", "note": "[Example 129, [2-(1,3,4,5-Tetrahydro-2H-2-benzazepin-2-yl)quinolin-4-yl]methanol]", "EC50": 7.88},
      {"compound": "Cc1ccc2nc(N3CCS(=O)(=O)c4ccccc4C3)cc(NCCO)c2c1", "note": "[Example 3-38, 2-{[2-(1,1-Dioxido-2,3-dihydro-1,4-benzothiazepin-4(5H)-yl)-6-methylquinolin-4-yl]amino}ethanol]", "EC50": 0.0439},
      {"compound": "Cc1ccc2nc(N3CCS(=O)(=O)c4ccccc4C3)cc(NC(=O)CN)c2c1", "note": "[Example 40-1, N-[2-(1,1-Dioxido-2,3-dihydro-1,4-benzothiazepin-4(5H)-yl)-6-methylquinolin-4-yl]glycinamide]", "EC50": 0.039},
      {"compound": "Cc1ccc2nc(N3CCS(=O)(=O)c4ccccc4C3)cc(N[C@@H]3CNC[C@H]3O)c2c1", "note": "(relative stereo) [Example 28-3, trans-4-{[2-(1,1-Dioxido-2,3-dihydro-1,4-benzothiazepin-4(5H)-yl)-6-methylquinolin-4-yl]amino}pyrrolidin-3-ol]", "EC50": 0.001},
      {"compound": "Cc1ccc2nc(N3CCS(=O)(=O)c4ccccc4C3)cc(S(=O)(=O)c3ccccc3)c2c1", "note": "[Example 102, 4-[6-Methyl-4-(phenylsulfonyl)quinolin-2-yl]-2,3,4,5-tetrahydro-1,4-benzothiazepine 1,1-dioxide]", "EC50": 9.76},
      {"compound": "Cc1ccc2nc(N3CCC(F)(F)c4ccccc4C3)cc(NCCCCN)c2c1", "note": "[Example 111-10, N-[2-(5,5-Difluoro-1,3,4,5-tetrahydro-2H-2-benzazepin-2-yl)-6-methylquinolin-4-yl]butane-1,4-diamine]", "EC50": 0.107},
      {"compound": "NC1=NCC(CNc2cc(N3CCCc4ccccc4C3)nc3ccc(Cl)cc23)O1", "note": "(centres unmarked) [Example 126-2, N-[(2-Amino-4,5-dihydro-1,3-oxazol-5-yl)methyl]-6-chloro-2-(1,3,4,5-tetrahydro-2H-2-benzazepin-2-yl)quinolin-4-amine]", "EC50": 0.638},
      {"compound": "Cc1ccc2nc(N3CCS(=O)(=O)c4ccccc4C3)cc(N3C[C@@H](O)[C@H](N4CCN(C)CC4)C3)c2c1", "note": "[Example 8-6, (3R,4R)-1-[2-(1,1-Dioxido-2,3-dihydro-1,4-benzothiazepin-4(5H)-yl)-6-methylquinolin-4-yl]-4-(4-methylpiperazin-1-yl)pyrrolidin-3-ol]", "EC50": 3.77},
      {"compound": "Cc1cccc2nc(N3CCS(=O)(=O)c4ccccc4C3)cc(NCCCN)c12", "note": "[Example 17-6, N-[2-(1,1-Dioxido-2,3-dihydro-1,4-benzothiazepin-4(5 H)-yl)-5-methylquinolin-4-yl]propane-1,3-diamine]", "EC50": 0.086},
      {"compound": "Cc1ccc2nc(N3CCS(=O)(=O)c4ccc(O)cc4C3)cc(NCC3(N)COC3)c2c1", "note": "[Example 66, 4-(4-{[(3-Aminooxetan-3-yl)methyl]amino}-6-methylquinolin-2-yl)-2,3,4,5-tetrahydro-1,4-benzothiazepin-7-ol 1,1-dioxide]", "EC50": 0.002},
      {"compound": "Cc1ccc2nc(N3CCC(F)(F)c4ccccc4C3)cc(N3CCC(N)C3)c2c1", "note": "(centres unmarked) [Example 111-4, 1-[2-(5,5-Difluoro-1,3,4,5-tetrahydro-2H-2-benzazepin-2-yl)-6-methylquinolin-4-yl]pyrrolidin-3-amine]", "EC50": 0.066},
      {"compound": "NCC(O)CNc1cc(N2CCCc3ccccc3C2)nc2ccccc12", "note": "(centres unmarked) [Example 118-8, 1-Amino-3-{[2-(1,3,4,5-tetrahydro-2H-2-benzazepin-2-yl)quinolin-4-yl]amino}propan-2-ol trifluoroacetate (salt)]", "EC50": 0.223},
      {"compound": "Cc1ccc2nc(N3CCS(=O)(=O)c4ccccc4C3)cc(NC[C@@H](N)CO)c2c1", "note": "[Example 37-2, (2R)-2-Amino-3-{[2-(1,1-dioxido-2,3-dihydro-1,4-benzothiazepin-4(5H)-yl)-6-methylquinolin-4-yl]amino}propan-1-ol]", "EC50": 0.043},
      {"compound": "NC1(CNc2cc(N3CCS(=O)(=O)c4ccccc4C3)nc3ccc(Cl)cc23)COC1", "note": "[Example 3-22, N-[(3-Aminooxetan-3-yl)methyl]-6-chloro-2-(1,1-dioxido-2,3-dihydro-1,4-benzothiazepin-4(5H)-yl)quinolin-4-amine]", "EC50": 0.032},
      {"compound": "NCCNc1cc(N2CCSc3ccccc3C2)nc2ccc(Cl)cc12", "note": "[Example 4-2, N-[6-Chloro-2-(2,3-dihydro-1,4-benzothiazepin-4(5H)-yl)quinolin-4-yl]ethane-1,2-diamine]", "EC50": 0.098},
      {"compound": "COc1ccc2c(c1)S(=O)(=O)CCN(c1cc(NCC3(N)COC3)c3cc(Cl)ccc3n1)C2", "note": "[Example 3-13, N-[(3-Aminooxetan-3-yl)methyl]-6-chloro-2-(8-methoxy-1,1-dioxido-2,3-dihydro-1,4-benzothiazepin-4(5H)-yl)quinolin-4-amine]", "EC50": 0.099},
      {"compound": "COc1ccc2nc(N3CCCc4ccccc4C3)cc(NCCN)c2c1", "note": "[Example 118-11, N-[6-Methoxy-2-(1,3,4,5-tetrahydro-2H-2-benzazepin-2-yl)quinolin-4-yl]ethane-1,2-diamine]", "EC50": 0.323},
      {"compound": "CO/N=C1\\CCN(c2cc(NCC3(N)COC3)c3cc(C)ccc3n2)Cc2ccccc21", "note": "[Example 112-2, N-[(3-Aminooxetan-3-yl)methyl]-2-[(5E)-5-(methoxyimino)-1,3,4,5-tetrahydro-2H-2-benzazepin-2-yl]-6-methylquinolin-4-amine]", "EC50": 0.092},
      {"compound": "NC1(CNc2cc(N3CCSc4ccccc4C3)nc3ccc(Cl)cc23)COC1", "note": "[Example 4-1, N-[(3-Aminooxetan-3-yl)methyl]-6-chloro-2-(2,3-dihydro-1,4-benzothiazepin-4(5H)-yl)quinolin-4-amine]", "EC50": 0.269},
      {"compound": "Cc1ccc2nc(N3CCS(=O)(=O)c4ccccc4C3)cc(N[C@H]3CC[C@@H](N)CC3)c2c1", "note": "[Example 3-18, cis-N-[2-(1,1-Dioxido-2,3-dihydro-1,4-benzothiazepin-4(5H)-yl)-6-methylquinolin-4-yl]-cyclohexane-1,4-diamine]", "EC50": 0.024},
      {"compound": "Cc1ccc2nc(N3CCS(=O)(=O)c4ccccc4C3)cc(NC(=O)Cc3ccccn3)c2c1", "note": "[Example 47-6, N-[2-(1,1-Dioxido-2,3-dihydro-1,4-benzothiazepin-4(5H)-yl)-6-methylquinolin-4-yl]-2-(pyridin-2-yl)acetamide]", "EC50": 2.31},
      {"compound": "COc1ccc2c(c1)CN(c1cc(NCCN)c3ccccc3n1)CCC2", "note": "[Example 118-17, N-[2-(8-Methoxy-1,3,4,5-tetrahydro-2H-2-benzazepin-2-yl)quinolin-4-yl]ethane-1,2-diamine]", "EC50": 0.806},
      {"compound": "Cc1ccc2nc(N3CCS(=O)(=O)c4ccccc4C3)cc(NCC3(N)CCOCC3)c2c1", "note": "[Example 2-3, N-[(4-Aminotetrahydro-2H-pyran-4-yl)methyl]-2-(1,1-dioxido-2,3-dihydro-1,4-benzothiazepin-4(5H)-yl)-6-methylquinolin-4-amine]", "EC50": 2.81}
    ]}
  ]
}
